Test results taken from patent US20080306073A1, “Antitumor Effect Potentiator, Antitumor Preparation, and Method for Treating Cancer” (priority 2005, published 2008).
Like-named read-outs stand apart in the source and are kept apart here. Marks after values point to notes of the source that are not given here.

Legend:
5-FU decomposition = settings: compared with uracil; cited from earlier work
[1] = tested on: human colon cancer xenograft COL-1 strain; experiment: Preliminary test: maximum tolerable dose of capecitabine (Pharmacological Test Example 5); type: in vivo, male nude mice BALB/c-nu/nu; settings: capecitabine po once a day 14 days at 240, 360 or 540 mg/kg with l-OHP 4.2 mg/kg/day iv days 1 and 8
Description: A fragment measuring about 2 mm cubic fragment of the human colon cancer xenograft COL-1 strain was subcutaneously implanted on the backs of male nude mice BALB/c-nu/nu. When the average tumor volume (=0.5×major axis (mm)×minor axis (mm)^2) reached about 190 mm^3, the mice were divided into groups (day 0). Capecitabine suspended in 0.5% HPMC solution was orally administered to the mice once a day at 240, 360, or 540 mg/kg from the day after grouping for 14 consecutive days. l-OHP dissolved in 5% aqueous glucose solution was administered into the tail vein on days 1 and 8 at 4.2 mg/kg/day immediately before the administration of the Capecitabine. The difference in body weight between the mice on day 0 and the mice on day 15 presented as a ratio and the occurrence of death were used as indices of systemic toxicity of capecitabine.

[2] = tested on: human colon cancer xenograft HCT-15 strain; experiment: Action toward a multidrug-resistant strain (Pharmacological Test Example 3); type: in vivo, male nude mice BALB/c-nu/nu
Excerpt: A fragment measuring about 2 mm cubic fragment of the human colon cancer xenograft HCT-15 strain, which expresses P-glycoprotein in large amounts and is resistant to multiple drugs, was subcutaneously implanted on the backs of male nude mice BALB/c-nu/nu. When the average tumor volume (=0.5×major axis (mm)×minor axis (mm)^2) reached about 200 mm^3, the mice were divided into groups (day 0). A TS-1 preparation as prepared in Pharmacological Test Example 1 was orally administered to the mice once a day in an amount as shown in Table 3 from day 1 for 14 consecutive days. The l-OHP preparation was administered only once into the tail vein on day 1 at 10.0 mg/kg immediately before the administration of the TS-1 preparation. The extent of tumor growth inhibition was calculated as in Pharmacological Test Example 1. Using the relative tumor volumes on day 15, the difference in relative tumor volume between the control group and the drug-administered groups was determined according to a Dunnett's test, and the difference between the one which was given either TS-1 or l-OHP and the one which was given TS-1 and l-OHP in combination was evaluated according to Student's t-test.

[3] = tested on: human colon cancer xenograft COL-1 strain; settings: TS-1 where given 6.9 mg/kg as tegafur po 14 days; for Relative tumor volume (Mean): day 15/day 0; for Extent of tumor growth inhibition (%): day 15; for Extent of body weight change (%): day 15 vs day 0
Description: A fragment measuring about 2 mm cubic fragment of the human colon cancer xenograft COL-1 strain was subcutaneously implanted on the backs of male nude mice BALB/c-nu/nu. When the average tumor volume (=0.5×major axis (mm)×minor axis (mm)^2) reached about 125 mm^3, the mice were divided into groups (day 0).
For the determination of antitumor effect, the ratio of the tumor volume upon grouping (day 0) to the tumor volume on day 15 was calculated to obtain a relative tumor volume. The extent of tumor growth inhibition was determined using the average relative tumor volumes of the drug-administered groups and the control group.
The extent of body weight change between the mice on day 0 and the mice on day 15 was used as an index of systemic toxicity of l-OHP.

[4] = tested on: human colon cancer xenograft COL-1 strain; settings: l-OHP into the tail vein on days 1 and 8
Description: A fragment measuring about 2 mm cubic fragment of the human colon cancer xenograft COL-1 strain was subcutaneously implanted on the backs of male nude mice BALB/c-nu/nu. When the average tumor volume (=0.5×major axis (mm)×minor axis (mm)^2) reached about 170 mm^3, the mice were divided into groups (day 0).
For the determination of antitumor effect, the ratio of the tumor volume upon grouping (day 0) to the tumor volume on day 15 was calculated to obtain a relative tumor volume. The extent of tumor growth inhibition was determined using the average relative tumor volumes of the drug-administered groups and the control group. Using the relative tumor volumes on the test day, the statistical significance of the difference in relative tumor volume between the control group and the one which was given the pharmaceutical agents was analyzed according to a Dunnett's test; and the statistical significance of the difference in relative tumor volume between the one which was given TS-1 and l-OHP in combination and the one which was given capecitabine and l-OHP in combination was analyzed according to Student's t-test. The extent of body weight change between the mice on day 0 and the mice on day 15 was used as an index of systemic toxicity of the pharmaceutical preparations.

[5] = tested on: 5-FU-resistant strain of the human colon cancer xenograft KM12C strain; experiment: Action toward a 5-FU-resistant strain (Pharmacological Test Example 2); settings: TS-1 8.3 mg/kg/day as tegafur po 9 days, l-OHP 8.3 mg/kg iv day 1
Description: A fragment measuring about 2 mm cubic fragment of a 5-FU-resistant strain of the human colon cancer xenograft KM12C strain established by the applicant was subcutaneously implanted on the backs of male nude mice BALB/c-nu/nu. When the average tumor volume (=0.5×major axis (mm)×minor axis (mm)^2) reached about 200 mm^3, the mice were divided into groups (day 0). […] The ratio of the tumor volume on day 0 to the tumor volume on day 10 was calculated to obtain a relative tumor volume.

[6] = tested on: human colon cancer xenograft KM20C strain; experiment: Antitumor effect on human colon cancer xenograft KM20C in nude rats (Pharmacological Test Example 1); settings: TS-1 12 or UFT 24 mg/kg/day as tegafur (+ LV 20) po 14 days, l-OHP 10 mg/kg iv day 1
Excerpt: A tegafur/gimeracil/oteracil potassium compound pharmaceutical agent (tegafur/gimeracil/oteracil potassium molar ratio=1:0.4:1, hereinafter sometimes referred to as TS-1), a tegafur/uracil compound pharmaceutical agent (tegafur/uracil molar ratio=1:4, hereinafter sometimes referred to as UFT), and d,l-calcium folinate were independently dissolved or suspended in 0.5% hydroxypropylmethyl cellulose (HPMC) solutions, and pharmaceutical preparations were formulated so as to allow administration thereof in a final dosage of 10 mL/kg.
l-OHP was dissolved in 5% aqueous glucose solution (Otsuka Glucose, manufactured by Otsuka Pharmaceutical Factory Inc.), thereby giving an l-OHP preparation.
A fragment measuring about 2 mm cubic fragment of the human colon cancer xenograft KM20C strain was subcutaneously implanted on the backs of male nude rats F344/NJcl-rnu. When the average tumor volume (=0.5×major axis (mm)×minor axis (mm)^2) reached about 200 mm^3, the rats were divided into groups (day 0).
The TS-1 preparation or the UFT+LV preparation prepared above was orally administered once a day in amounts presented in Table 1 from the day after grouping (day 1) for 14 consecutive days. The l-OHP preparation was administered into the tail vein on day 1 at 10 mg/kg immediately before the administration of the aforementioned preparations.
The ratio of the tumor volume upon grouping (day 0) to the tumor volume on day 15 was regarded as the relative tumor volume: Tumor volume on day 15/Tumor volume on day 0
The extent of tumor growth inhibition (%) was calculated using the average relative tumor volume of the drug-administered groups and the average relative tumor volume of the control group:
[1−(Relative tumor volume of drug-administered group)/(Relative tumor volume of tumor-bearing control group)]×100 (%)
The difference in body weight between rats on day 0 and rats on day 15 presented as a ratio (extent of body weight change) was used as an index of systemic toxicity of the pharmaceutical preparation: […]

[7] = l-OHP 2.9 mg/kg iv days 1 and 8
[8] = l-OHP 3.5 mg/kg iv days 1 and 8
[9] = l-OHP 4.2 mg/kg iv days 1 and 8
[10] = l-OHP 5.0 mg/kg iv days 1 and 8

## Oc1cc(O)c(Cl)cn1 [gimeracil, 2,4-dihydroxy-5-chloropyridine]
5-FU decomposition
  5-FU decomposition inhibitory action relative to that of uracil: about 200 times

## CCCCCOC(=O)Nc1nc(=O)n([C@@H]2O[C@H](C)[C@@H](O)[C@H]2O)cc1F [capecitabine]
[1]
  maximum tolerable dose at which death due to toxicity is not observed: 360 mg/kg/day

## O=C([O-])C(=O)[O-].[NH-][C@@H]1CCCC[C@H]1[NH-].[Pt+4] (relative stereo) [l-OHP, cis-oxalate(1R,2R-diaminocyclohexane)platinum(II)]
[2]; day 15/day 0, TS-1 10 mg/kg/day as tegafur po 14 days, l-OHP 10 mg/kg iv once day 1
  Relative tumor volume (Mean): 4.33
[2]; day 15, TS-1 10 mg/kg/day as tegafur po 14 days, l-OHP 10 mg/kg iv once day 1
  Extent of tumor growth inhibition (%): 4.3%
[2]; l-OHP alone, 10 mg/kg iv once day 1
  antitumor effect on the multidrug-resistant tumor (in words): barely shows any antitumor effect
[3]; [7]
  Relative tumor volume (Mean): 5.06 ^§
  Extent of tumor growth inhibition (%): 11.9%
  Extent of body weight change (%): −18.0%
  Number of dead animal: 0
[3]; [8]
  Relative tumor volume (Mean): 4.54 ^§, *
  Extent of tumor growth inhibition (%): 21.0%
  Extent of body weight change (%): −20.6%
  Number of dead animal: 0
[3]; [9]
  Relative tumor volume (Mean): 4.43 ^§, **
  Extent of tumor growth inhibition (%): 23.0%
  Extent of body weight change (%): −19.0%
  Number of dead animal: 0
[3]; [10]
  Relative tumor volume (Mean): 4.41 ^§, **
  Extent of tumor growth inhibition (%): 23.3%
  Extent of body weight change (%): −16.8%
  Number of dead animal: 0
[4]
  maximum tolerable dose: 4.2 mg/kg/day
[5]; day 10/day 0
  Relative tumor volume (Mean): 7.97
[5]; day 10
  Extent of tumor growth inhibition (%): 16.1%
[5]; day 10 vs day 0
  Extent of body weight change (%): −8.0%
[6]; day 15/day 0
  Relative tumor volume (Mean): 4.64
[6]; day 15
  Extent of tumor growth inhibition (%): 20.1%
[6]; day 15 vs day 0
  Extent of body weight change (%): 0.9%
